The text below walks through data of US12227482B2, “Compounds and compositions for the treatment of cancer” (The Regents of the University of California, priority 2016, dated 2025).

A value given as a limit tells only on which side of the number the result lay.

As usually defined, the IC50 is the concentration that gives 50% inhibition. A higher IC50 goes with a need for much substance.

What all share (type): cell-based
The subject of one assay is MelJuSo cells. Put plainly: Cell viability (CellTiter-Glo ATP content) in MelJuSo cells. The settings on record: Homo sapiens, MEL-JUSO, 72 hours treatment, cell survival by CellTiter-Glo, 2% fetal bovine serum. The method, then:
(§1) Logarithmically growing A549, LOX and MelJuSo cells (ATCC) were plated in antibiotic-free RPMI medium (Coming) supplemented with 2% fetal bovine serum (Gemini Bio-products) at a density of 5,000 cells per well in clear-bottom 96-well plates. The next day cells were treated (triplicates) with increasing doses of a compound of the present disclosure (dissolved in DMSO) and DMSO vehicle controls (final DMSO concentration of 0.5%) for 72 hours and subsequently assessed for cell viability by measuring ATP content with CellTiter-Glo Luminescent Cell Viability Assay (Promega). Signal intensity was measured on a Glomax™ 96 Microplate Luminometer (Promega) and percent cell survival was calculated based on the reading of vehicle control cells set as 100%.
(In ATP-based viability assays light output follows the ATP content of the culture.)

The next assay relates to LOX cells. In words: Cell viability (CellTiter-Glo ATP content) in LOX cells. The settings on record: LOX, 72 h, 72 hours treatment, cell survival by CellTiter-Glo, 2% fetal bovine serum. As for the experimental part:
as §1

A further assay concerns A549 cells. In words: Cell viability (CellTiter-Glo ATP content) in A549 cells. The conditions noted are these: Homo sapiens, A549, 72 h, 72 hours treatment, cell survival by CellTiter-Glo, 2% fetal bovine serum. As for the experimental part: as §1

As to `COCCNC(=O)C1(C)C(c2ccc(Cl)o2)C(c2ccc(F)cc2F)=NN1c1ccc(F)cc1F` (stereo not drawn) [Compound 120, 4-(5-chlorofuran-2-yl)-1,3-bis(2,4-difluorophenyl)-N-(2-methoxyethyl)-5-methyl-4,5-dihydro-1H-pyrazole-5-carboxamide], the concentration for half-maximal inhibition (IC50) in the assay on MelJuSo cells, in the assay with LOX cells and in the assay with A549 cells was less than 0.25 µM in each case.

As to `CCCCC1C(c2ccc(F)cc2)=NN(c2ccc(F)cc2F)C1(C)C(=O)NCCC#N` (stereo not drawn) [Compound 83, 4-butyl-N-(2-cyanoethyl)-1-(2,4-difluorophenyl)-3-(4-fluorophenyl)-5-methyl-4,5-dihydro-1H-pyrazole-5-carboxamide], the results for the IC50 in the assay on MelJuSo cells, with LOX cells and in the assay with A549 cells were 0.5 to 1 µM, 1 to 2 µM and 1 to 2 µM, respectively.

`CCCCC1C(c2ccc(F)cc2)=NN(c2ccc(C)cc2)C1(C)C(=O)NCCCC(C)(C)CO` (stereo not drawn) [Compound 15, 4-butyl-3-(4-fluorophenyl)-N-(5-hydroxy-4,4-dimethylpentyl)-5-methyl-1-p-tolyl-4,5-dihydro-1H-pyrazole-5-carboxamide]: the IC50 lay within 0.25 to 0.5 µM in the assay with MelJuSo cells, 0.25 to 0.5 µM in the assay on LOX cells and 1 to 2 µM with A549 cells.

As for `CC(C)(C)OC(=O)N1CCOC(CNC(=O)C2(C)C(c3ccc(Cl)o3)C(c3ccc(F)cc3F)=NN2c2ccc(F)cc2F)C1` (stereo not drawn) [Compound 138, tert-butyl 2-((4-(5-chlorofuran-2-yl)-1,3-bis(2,4-difluorophenyl)-5-methyl-4,5-dihydro-1H-pyrazole-5-carboxamido)methyl)morpholine-4-carboxylate], the IC50 in the assay with MelJuSo cells, in the assay with LOX cells and with A549 cells was more than 2 µM in each case.

For `CCCCC1C(c2ccc(F)cc2)=NN(c2ccccc2)C1(C)C(=O)NCCC(C)N(C)C` (stereo not drawn) [Compound 75, 4-butyl-N-(3-(dimethylamino)butyl)-3-(4-fluorophenyl)-5-methyl-1-phenyl-4,5-dihydro-1H-pyrazole-5-carboxamide], the IC50 with MelJuSo cells was more than 2 µM; in the assay on LOX cells, more than 2 µM; with A549 cells it was 0.5 to 1 µM.

As to `CC(C)(CO)CCCNC(=O)C1(C)C(c2ccsc2)C(c2ccc(F)cc2F)=NN1c1ccc(F)cc1F` (stereo not drawn) [Compound 117, 1,3-bis(2,4-difluorophenyl)-N-(5-hydroxy-4,4-dimethylpentyl)-5-methyl-4-(thiophen-3-yl)-4,5-dihydro-1H-pyrazole-5-carboxamide], the IC50 lay in the range of 0.25 to 0.5 µM with MelJuSo cells, 0.5 to 1 µM in the assay with LOX cells and 0.5 to 1 µM in the assay on A549 cells.

Turning to `CC(C)(CO)CCCNC(=O)C1(C)C(c2ccoc2)C(c2ccc(F)cc2F)=NN1c1ccc(F)cc1F` (stereo not drawn) [Compound 129, 1,3-bis(2,4-difluorophenyl)-4-(furan-3-yl)-N-(5-hydroxy-4,4-dimethylpentyl)-5-methyl-4,5-dihydro-1H-pyrazole-5-carboxamide], the IC50 in the assay on MelJuSo cells fell in the range of 0.25 to 0.5 µM; with LOX cells, 0.5 to 1 µM; with A549 cells, 0.5 to 1 µM.

With `CCCCC1C(c2ccc(F)cc2)=NN(c2ccccc2)C1(C)C(=O)NCC(C)CN(C)C` (stereo not drawn) [Compound 77, 4-butyl-N-(3-(dimethylamino)-2-methylpropyl)-3-(4-fluorophenyl)-5-methyl-1-phenyl-4,5-dihydro-1H-pyrazole-5-carboxamide], the half-inhibitory concentration (IC50) in the assay with MelJuSo cells is more than 2 µM; in the assay with LOX cells, more than 2 µM; in the assay on A549 cells it was 0.25 to 0.5 µM.

As to `CCCCC1C(c2ccc(F)cc2)=NN(c2ccccc2)C1(C)C(=O)NCC(C)(C)C` (stereo not drawn) [Compound 72, 4-butyl-3-(4-fluorophenyl)-5-methyl-N-neopentyl-1-phenyl-4,5-dihydro-1H-pyrazole-5-carboxamide], the half-inhibitory concentration (IC50) in the assay on MelJuSo cells, in the assay on LOX cells and with A549 cells was more than 2 µM in each case.

Consider `CN1CCOC(CNC(=O)C2(C)C(c3cccs3)C(c3ccc(F)cc3)=NN2c2ccc(F)cc2F)C1` (stereo not drawn) [Compound 127, 1-(2,4-difluorophenyl)-3-(4-fluorophenyl)-5-methyl-N-((4-methylmorpholin-2-yl)methyl)-4-(thiophen-2-yl)-4,5-dihydro-1H-pyrazole-5-carboxamide], for which the results for the half-inhibitory concentration (IC50) in the assay on MelJuSo cells, in the assay with LOX cells and in the assay with A549 cells were less than 0.25 µM, 0.5 to 1 µM and 0.5 to 1 µM, respectively.

Take `COCCNC(=O)C1(C)C(c2cccs2)C(c2ccc(F)cc2)=NN1c1ccc(F)cc1F` (stereo not drawn) [Compound 60, 1-(2,4-difluorophenyl)-3-(4-fluorophenyl)-N-(2-methoxyethyl)-5-methyl-4-(thiophen-2-yl)-4,5-dihydro-1H-pyrazole-5-carboxamide]: the 50% inhibitory concentration (IC50) in the assay on MelJuSo cells was less than 0.25 µM; in the assay on LOX cells it was less than 0.25 µM; in the assay on A549 cells it was 0.25 to 0.5 µM.

Turning to `COCCNC(=O)C1(C)C(c2cccs2)C(c2ccc(F)cc2)=NN1c1ccc(C)cc1` (stereo not drawn) [Compound 63, 3-(4-fluorophenyl)-N-(2-methoxyethyl)-5-methyl-4-(thiophen-2-yl)-1-p-tolyl-4,5-dihydro-1H-pyrazole-5-carboxamide], the values for the IC50 with MelJuSo cells, in the assay with LOX cells and in the assay on A549 cells were less than 0.25 µM, less than 0.25 µM and 0.25 to 0.5 µM, respectively.

Regarding `CCCCC1C(c2ccc(F)cc2)=NN(c2ccc(C)cc2)C1(C)C(=O)NCCOC` (stereo not drawn) [Compound 59, 4-butyl-3-(4-fluorophenyl)-N-(2-methoxyethyl)-5-methyl-1-p-tolyl-4,5-dihydro-1H-pyrazole-5-carboxamide], the concentration for half-maximal inhibition (IC50) in the assay with MelJuSo cells was less than 0.25 µM; in the assay with LOX cells it was less than 0.25 µM; with A549 cells, 0.25 to 0.5 µM.

As for `CCCCC1C(c2ccc(F)cc2)=NN(c2ccc(F)cc2F)C1(C)C(=O)NCCCC(C)(C)CO` (stereo not drawn) [Compound 3, 4-butyl-1-(2,4-difluorophenyl)-3-(4-fluorophenyl)-N-(5-hydroxy-4,4-dimethylpentyl)-5-methyl-4,5-dihydro-1H-pyrazole-5-carboxamide], the IC50 in the assay on MelJuSo cells, with LOX cells and in the assay on A549 cells was 0.5 to 1 µM throughout.

As for `COC(=O)CNC(=O)C1(C)C(c2ccoc2)C(c2ccc(F)cc2F)=NN1c1ccc(F)cc1F` (stereo not drawn) [Compound 131, methyl 2-(1,3-bis(2,4-difluorophenyl)-4-(furan-3-yl)-5-methyl-4,5-dihydro-1H-pyrazole-5-carboxamido)acetate], the figures for the 50% inhibitory concentration (IC50) in the assay on MelJuSo cells, in the assay on LOX cells and in the assay with A549 cells were 0.25 to 0.5 µM, 0.5 to 1 µM and 0.5 to 1 µM, respectively.

As for `CCCCC1C(c2ccc(F)cc2)=NN(c2ccc(F)cc2F)C1(C)C(=O)NCCOCC` (stereo not drawn) [Compound 32, 4-butyl-1-(2,4-difluorophenyl)-N-(2-ethoxyethyl)-3-(4-fluorophenyl)-5-methyl-4,5-dihydro-1H-pyrazole-5-carboxamide], the IC50 in the assay with MelJuSo cells lay within 0.25 to 0.5 µM; with LOX cells, 0.5 to 1 µM; in the assay with A549 cells, 0.5 to 1 µM.

On to `CC(C)(CO)CCCNC(=O)C1(C)C(c2ccc(Cl)s2)C(c2ccc(F)cc2)=NN1c1ccc(F)cc1F` (stereo not drawn) [Compound 101, 4-(5-chlorothiophen-2-yl)-1-(2,4-difluorophenyl)-3-(4-fluorophenyl)-N-(5-hydroxy-4,4-dimethylpentyl)-5-methyl-4,5-dihydro-1H-pyrazole-5-carboxamide], for which the IC50 is 0.5 to 1 µM with MelJuSo cells, more than 2 µM in the assay with LOX cells and more than 2 µM in the assay with A549 cells.

For `CCCCC1C(c2ccc(F)cc2)=NN(c2cccc(C)c2)C1(C)C(=O)NCCOC` (stereo not drawn) [Compound 55, 4-butyl-3-(4-fluorophenyl)-N-(2-methoxyethyl)-5-methyl-1-m-tolyl-4,5-dihydro-1H-pyrazole-5-carboxamide], the figures for the concentration for half-maximal inhibition (IC50) with MelJuSo cells, in the assay on LOX cells and with A549 cells were less than 0.25 µM, less than 0.25 µM and 0.25 to 0.5 µM, respectively.

In the case of `COCCNC(=O)C1(C)C(c2ccco2)C(c2ccc(F)cc2)=NN1c1ccc(F)cc1F` (stereo not drawn) [Compound 92, 1-(2,4-difluorophenyl)-3-(4-fluorophenyl)-4-(furan-2-yl)-N-(2-methoxyethyl)-5-methyl-4,5-dihydro-1H-pyrazole-5-carboxamide], the IC50 in the assay on MelJuSo cells, with LOX cells and in the assay on A549 cells was less than 0.25 µM in each case.

`CCCCC1C(c2ccc(F)cc2)=NN(c2ccccc2)C1(C)C(=O)NCC1CCCCO1` (stereo not drawn) [Compound 68, 4-butyl-3-(4-fluorophenyl)-5-methyl-1-phenyl-N-((tetrahydro-2H-pyran-2-yl)methyl)-4,5-dihydro-1H-pyrazole-5-carboxamide]: the half-inhibitory concentration (IC50) in the assay with MelJuSo cells is 0.5 to 1 µM; with LOX cells, 1 to 2 µM; in the assay with A549 cells it was more than 2 µM.

As for `CC1(C(=O)NCC(=O)N2CCS(=O)(=O)CC2)C(c2cccs2)C(c2ccc(F)cc2)=NN1c1ccc(F)cc1F` (stereo not drawn) [Compound 105, 1-(2,4-difluorophenyl)-3-(4-fluorophenyl)-5-methyl-N-(1,1-dioxo-1-thiomorpholine-2-oxoethyl)-4-(thiophen-2-yl)-4,5-dihydro-1H-pyrazole-5-carboxamide], the half-maximal inhibitory concentration (IC50) in the assay on MelJuSo cells, with LOX cells and with A549 cells was more than 2 µM throughout.

Take `CCCCC1C(c2ccc(F)cc2)=NN(c2ccc(F)c(OC)c2)C1(C)C(=O)NCCCC(C)(C)CO` (stereo not drawn) [Compound 18, 4-butyl-1-(4-fluoro-3-methoxyphenyl)-3-(4-fluorophenyl)-N-(5-hydroxy-4,4-dimethylpentyl)-5-methyl-4,5-dihydro-1H-pyrazole-5-carboxamide]: the half-inhibitory concentration (IC50) in the assay on MelJuSo cells, in the assay on LOX cells and in the assay on A549 cells was more than 2 µM throughout.

`CCCCC1C(c2ccc(S(C)(=O)=O)cc2)=NN(c2ccc(F)cc2F)C1(C)C(=O)NCCCC(C)(C)CO` (stereo not drawn) [Compound 113, 4-butyl-1-(2,4-difluorophenyl)-N-(5-hydroxy-4,4-dimethylpentyl)-5-methyl-3-(4-(methylsulfonyl)phenyl)-4,5-dihydro-1H-pyrazole-5-carboxamide]: the IC50 with MelJuSo cells, with LOX cells and in the assay on A549 cells was more than 2 µM throughout.
